In patent US12679855B2, “Inhibitors of the enzyme enolase for precision oncology” (Board of Regents, The University of Texas System, priority 2019, dated 2026):
Several values for one entry are separate records, joined by “and”; a condition that tells them apart may be missing. Identical values can stand only once. Like-named read-outs stand apart in the source and are kept apart here.

Experiments:
[1] = Human plasma stability assay (31P NMR); format: in vitro ADME
Method: VCY17 (left) and POMHEX (right) were prepared at 1.5 mM and added to human plasma in an NMR tube with 10% D2O for signal lock. […] As expected, emergence of the second peak after 1 h is due to hydrolysis of the acetyl-protected hydroxamate; the nitroimidazole moiety remains attached (mono-ester phosphonates always show ^31P-chemical shifts <20 ppm); intact phosphoramidate mixed ester was verified by ^31P-^1H HSQC showing resonance with protons at ~5 ppm (—CH2—O—P) and 4 ppm (—CH2—NH—P). Note that VCY17 and de-acetylated VCY17 can come out as doublets: this is because two chiral centers (Phosphorus and C1) yield cis/trans diasteromers.
VCY13 (FIG. 20A) and VCY31 (FIG. 20B) are thioesterase-labile phosphonoamidates. ENO1-deleted (D423, red), ENO1-isogenically rescued (D423 ENO1, blue), and ENO1-WT (LN319, grey) cells were treated with either VCY13 or VCY31 for 5 days. […] (FIG. 20B) VCY31 is a structurally similar pro-drug that uses 2-picolylamine, rather than benzylamine, as a second pro-drug leave group. […] 4 mM VCY31 was dissolved in 80% human plasma, 20% D2O and monitored by ^31P NMR (121 MHz) for 15 hours. Intact VCY31 has a ^31P NMR shift of 33 ppm. Hydrolysis of the thioester begins to occur after 2 hours, as indicated by the emergence of a peak at ~16 ppm.
Human plasma stability assay. POMHEX and VCY17 (1.5 mM) were added to human plasma (Sigma #P9523) in an NMR tube with 10% D2O for signal lock. ^31P NMR measurements (31P CPD, 1000 transients) were conducted every 30 minutes on the first day and every 24 hours, for 4 days afterwards.

[2] = test system: D502 glioma cell line (ENO1-heterozygously deleted); assay: Enolase inhibitor sensitivity (crystal violet), ENO1-heterozygously deleted D502 cells; format: cell-based; conditions: DMEM 10% FBS, terminal cell density by crystal violet after 7 days
Method: (§1) Enolase inhibitor sensitivity experiments were performed, using DMEM containing 10% FBS cell culture media. IC50 (expressed in nM) were calculated based on terminal cell density measured by crystal violet after 7 days of growth. […] Left table: POMHEX. Middle table: HEX. Right table: Ratio of sensitivity to POMHEX versus HEX for each cell line.
(§2) (FIG. 19A) ENO1-deleted (D423, red), ENO1-isogenically rescued (D423 ENO1, blue), and ENO1-WT (LN319, grey) cells were treated POMHEX in RPMI media under the same experimental conditions used for NCI-60 screening. […] IC50 (expressed in nM) were calculated based on terminal cell density measured by crystal violet.
(§3) Cell proliferation assay.

[3] = Plasma and organ levels after injection of POMHEX in mice; format: in vivo, mouse
Method: (§4) FIGS. 3A-3D show the ex-vivo half-life of POMHEX in biological fluids may limit its clinical utility. (FIG. 3A) Ex-vivo half-life of POMHEX in biological fluids. POMHEX has a half-life of ~30 seconds in mouse plasma. The degradation may be prevented by heat inactivation or de-proteinatization with acetonitrile. […] (FIG. 3B) Plasma concentration of HEX and HemiPOMHEX following a single intravenous injection of POMHEX, as a function of time. Mice were injected IV with 10 mg/kg POMHEX and sacrificed at the indicated time points. Each data point represents a single animal. Note, POMHEX itself was below the detection limit (100 nM) even at the earliest time point. It is believed that this may not be reflective of the physiological state as separation of plasma from hematocrit is required for the measurements, which adds approximately 6 minutes of processing time during which POMHEX may be degraded to HemiPOMHEX. (FIG. 3C) The results of the same experiment but performed with an intraperitoneal injection of POMHEX, at a dose of 40 mg/kg. (FIG. 3D) Quantification of POMHEX and its metabolites in mouse organs 24 hrs. after a single intravenous injection of 10 mg/kg POMHEX.
FIGS. 16A-16C show the ex-vivo half-life of POMHEX in biological fluids limits its clinical utility. […] Lower levels of carboxylesterase in human blood results in a longer half-life of POMHEX. (FIG. 16B) Dramatically higher drug exposure in non-human primates as compared to mice following IV injections of POMHEX. Mice (n=3; pooled) and monkeys (n=3; pooled) were injected IV with POMHEX at 10 mg/kg and 2.5 mg/kg, respectively. […] POMHEX was undetectable (<50 nM) even at the earliest time point, in both monkey and mouse experiments; at 98 nM, POMHEX was detectable 1-minute post-injection, but at no time thereafter. […] HEX and HemiPOMHEX were not measured at concentrations higher than 10 mg/kg due to the hazards associated with the derivatization agent, trimethylsilyl-diazomethane in hexane (TMS-DAM). (FIG. 16C) Schematic of POMHEX in circulation when administered IP or IV in mice. […]

[4] = Plasma levels after IV injection of POMHEX in monkeys; format: in vivo, monkey
Method: FIGS. 16A-16C show the ex-vivo half-life of POMHEX in biological fluids limits its clinical utility. […] Lower levels of carboxylesterase in human blood results in a longer half-life of POMHEX. (FIG. 16B) Dramatically higher drug exposure in non-human primates as compared to mice following IV injections of POMHEX. Mice (n=3; pooled) and monkeys (n=3; pooled) were injected IV with POMHEX at 10 mg/kg and 2.5 mg/kg, respectively. […] POMHEX was undetectable (<50 nM) even at the earliest time point, in both monkey and mouse experiments; at 98 nM, POMHEX was detectable 1-minute post-injection, but at no time thereafter. […] HEX and HemiPOMHEX were not measured at concentrations higher than 10 mg/kg due to the hazards associated with the derivatization agent, trimethylsilyl-diazomethane in hexane (TMS-DAM). (FIG. 16C) Schematic of POMHEX in circulation when administered IP or IV in mice. Due to high levels of plasma carboxylesterase, a gradient decrease in POMHEX away from the site of injection is accompanied by a concurrent increase in HemiPOMHEX.

[5] = test system: U343 glioma cell line (ENO1-heterozygously deleted); assay: Enolase inhibitor sensitivity (crystal violet), ENO1-heterozygously deleted U343 cells; format: cell-based; conditions: DMEM 10% FBS, terminal cell density by crystal violet after 7 days
Method: as §1, §2, §3

[6] = Ex-vivo stability in human blood; format: in vitro ADME
Method: as §4, with “(FIG. 3C) The results of the same experiment but performed with an intraperitoneal injection of POMHEX, at a dose of 40 mg/kg.” left out
FIGS. 16A-16C show the ex-vivo half-life of POMHEX in biological fluids limits its clinical utility. […] HEX and HemiPOMHEX were not measured at concentrations higher than 10 mg/kg due to the hazards associated with the derivatization agent, trimethylsilyl-diazomethane in hexane (TMS-DAM). […]

[7] = test system: D423 (ENO1-deleted) glioma cells; assay: Cell proliferation assay (crystal violet) in ENO1-deleted glioma cells; format: cell-based; conditions: 4 days
[8] = test system: glioma cell lines with different ENO1-deletion status; assay: Enolase inhibitor sensitivity across glioma cell lines; format: cell-based
Method: as §1, §2

CC(C)(C)C(=O)OCOP(=O)(OCOC(=O)C(C)(C)C)C1CCCN(O)C1=O (stereo not shown) [POMHEX]
time of hydrolysis to HemiPOMHEX in human plasma ([1]; 1.5 mM, human plasma with 10% D2O, 31P NMR): less than 1 h
longevity of intact POMHEX ([1]; FIG. 15): 2 h
IC50 [2]: 82 nM
level in mouse organs ([3]; 24 hrs. after a single intravenous injection of 10 mg/kg POMHEX): below the quantification limit (BQL)
plasma concentration of POMHEX, mice ([3]; IV 10 mg/kg, even at the earliest time point, 10 mg/kg): < 100 nM and < 50 nM
plasma concentration of POMHEX 1-minute post-injection ([4]; 1-minute post-injection, species not stated): 98 nM
potentially higher toxicity in monkey ([4]; IV 2.5 mg/kg): did not materialize
plasma concentration of POMHEX, monkeys ([4]; IV 2.5 mg/kg, even at the earliest time point): < 50 nM
IC50 [5]: 559 nM
stability in human blood relative to mouse plasma [6]: at least 20 times
IC50 ([7]; 1% O2, read-out: IC50 for D423 ENO1-homozygously deleted glioma cells under 1% O2 hypoxia): ~90 nM and 84 nM
potency decrease under 1% O2 ([7]; 1% O2 versus 21% O2): ~ 2.5 fold
IC50 ([7]; normoxia (21% O2), read-out: IC50 for D423 ENO1-homozygously deleted glioma cells under normoxia): ~40 nM and 31 nM
specificity towards ENO1-heterozygous deleted cells compared to normal tissue [8]: 10 fold
sensitivity greater in RPMI as compared to DMEM media ([8]; D423, D423 ENO1, LN319 cells, NCI-60 screening conditions): ~ 3 fold
potency of POMHEX greater than HEX, on average ([8]; average across glioma cell lines): ~ 75 fold
